Data reported in PubChem BioAssay AID2060347 (Molecular Pharmacology Branch, DTP, NCI, 2025).
pIC50: −log10 of the molar value. Values joined by “and” are separate entries in the source; they are usually repeats but may differ in a detail not shown here. Equal entries are not always repeated.

Test system: 817829-284-R-J1-PDC spheroids with HUVEC/MSC, viability
Experiment: Anticancer human tumor 817829-284-R-J1-PDC patient-derived colon adenocarcinoma cell line growth inhibition [TAK]
Settings: for viability, T/C: stronger effect = lower value
Summary of the method: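 Tumor cells were grown as spheroids with HUVEC and hMSC (60:25:15) and treated with targeted agents combined with TAK-243 or ipatasertib. Drugs were tested in half-log steps down from near the clinical Cmax, or from 10 microM where Cmax was unknown.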

How did the pIC50 (curve of first compound, second compound 0.3 µM) turn out when `CC(C)(C)c1nc(-c2cccc(NS(=O)(=O)c3c(F)cccc3F)c2F)c(-c2ccnc(N)n2)s1` + CC(C)NCC(C(=O)N1CCN(c2ncnc3c2C(C)CC3O)CC1)c1ccc(Cl)cc1 was run?
Its pIC50 is 6.96.

And the pIC50 (curve of first compound, second compound 0.949 µM)?
Its pIC50 is over 7.50.

What about the pIC50 (curve of first compound, second compound 3 µM) of the same compound?
Its pIC50 is over 7.50.

And the pIC50 (curve of first compound, second compound 9.49 µM)?
Its pIC50 is over 7.50.

What about the pIC50 (curve of first compound, second compound 30 µM) of the same compound?
Its pIC50 is over 7.50.

What about the viability, T/C (second compound 0.3 µM, first compound 0.0316 µM) of the same compound?
Its viability, T/C is 77.1%.

What about the viability, T/C (second compound 0.3 µM, first compound 0.1 µM) of the same compound?
The viability, T/C was 52.1%.

What about the viability, T/C (second compound 0.3 µM, first compound 0.316 µM) of the same compound?
Its viability, T/C is 27.6%.

And the viability, T/C (second compound 0.3 µM, first compound 1 µM)?
Its viability, T/C is 18%.

What about the viability, T/C (second compound 0.3 µM, first compound 3.16 µM) of the same compound?
Its viability, T/C is 20%.

What about the viability, T/C (second compound 0.3 µM, first compound 10 µM) of the same compound?
The viability, T/C was 40.6%.

What about the viability, T/C (second compound 0.949 µM, first compound 0.0316 µM) of the same compound?
The viability, T/C was 27.6%.

And the viability, T/C (second compound 0.949 µM, first compound 0.1 µM)?
The viability, T/C was 31.9%.

And the viability, T/C (second compound 0.949 µM, first compound 0.316 µM)?
Its viability, T/C is 22.4%.

What about the viability, T/C (second compound 0.949 µM, first compound 1 µM) of the same compound?
Its viability, T/C is 15.3%.

And the viability, T/C (second compound 0.949 µM, first compound 3.16 µM)?
The viability, T/C was 15.6%.

And the viability, T/C (second compound 0.949 µM, first compound 10 µM)?
Its viability, T/C is 20.1%.

What about the viability, T/C (second compound 3 µM, first compound 0.0316 µM) of the same compound?
The viability, T/C was 15.9%.

What about the viability, T/C (second compound 3 µM, first compound 0.1 µM) of the same compound?
The viability, T/C was 16.9%.

What about the viability, T/C (second compound 3 µM, first compound 0.316 µM) of the same compound?
The viability, T/C was 13.4%.

What about the viability, T/C (second compound 3 µM, first compound 1 µM) of the same compound?
The viability, T/C was 11.1%.

And the viability, T/C (second compound 3 µM, first compound 3.16 µM)?
The viability, T/C was 11%.

What about the viability, T/C (second compound 3 µM, first compound 10 µM) of the same compound?
The viability, T/C was 13.7%.

What about the viability, T/C (second compound 9.49 µM, first compound 0.0316 µM) of the same compound?
Its viability, T/C is 9.35%.

And the viability, T/C (second compound 9.49 µM, first compound 0.1 µM)?
Its viability, T/C is 10.3%.

What about the viability, T/C (second compound 9.49 µM, first compound 0.316 µM) of the same compound?
Its viability, T/C is 9.8%.

And the viability, T/C (second compound 9.49 µM, first compound 1 µM)?
Its viability, T/C is 7.09%.

What about the viability, T/C (second compound 9.49 µM, first compound 3.16 µM) of the same compound?
The viability, T/C was 6.36%.

What about the viability, T/C (second compound 9.49 µM, first compound 10 µM) of the same compound?
The viability, T/C was 9.46%.

What about the viability, T/C (second compound 30 µM, first compound 0.0316 µM) of the same compound?
Its viability, T/C is 5.5%.

What about the viability, T/C (second compound 30 µM, first compound 0.1 µM) of the same compound?
Its viability, T/C is 5.14%.

What about the viability, T/C (second compound 30 µM, first compound 0.316 µM) of the same compound?
Its viability, T/C is 5.38%.

What about the viability, T/C (second compound 30 µM, first compound 1 µM) of the same compound?
The viability, T/C was 3.29%.

What about the viability, T/C (second compound 30 µM, first compound 3.16 µM) of the same compound?
Its viability, T/C is 3.24%.

And the viability, T/C (second compound 30 µM, first compound 10 µM)?
Its viability, T/C is 4.85%.

For `CC(C)CC(NC(=O)CNC(=O)c1cc(Cl)ccc1Cl)B1OC(=O)CC(CC(=O)O)(C(=O)O)O1` (configuration not stated), which viability, T/C (compound 0.000316 µM) is on record?
Its viability, T/C is 106% and 97.9%.

What about the viability, T/C (compound 0.001 µM) of the same compound?
Its viability, T/C is 107% and 100%.

And the viability, T/C (compound 0.00316 µM)?
Its viability, T/C is 111% and 99.2%.

And the viability, T/C (compound 0.01 µM)?
The viability, T/C was 103% and 105%.

What about the viability, T/C (compound 0.0316 µM) of the same compound?
The viability, T/C was 3.63% and 22.3%.

What about the viability, T/C (compound 0.1 µM) of the same compound?
Its viability, T/C is 0.47% and 0.3%.

And the pIC50 (curve of compound)?
Its pIC50 is 7.73 and 7.68.
